Measured values: patent US7879887B2, “α-amino acid derivatives and medicaments containing the same as an active ingredient” (Nissan Chemical Industries, Ltd., priority 2006, dated 2011)

Key:
[1] = molecular target: T1, Aurora A (Homo sapiens, UniProt O14965); assay: In vitro kinase assay, Aurora A; format: biochemical; conditions: recombinant protein (Upstate)
T1 construct: purchased Upstate Inc. 14-511
T1 sequence (O14965 1-403): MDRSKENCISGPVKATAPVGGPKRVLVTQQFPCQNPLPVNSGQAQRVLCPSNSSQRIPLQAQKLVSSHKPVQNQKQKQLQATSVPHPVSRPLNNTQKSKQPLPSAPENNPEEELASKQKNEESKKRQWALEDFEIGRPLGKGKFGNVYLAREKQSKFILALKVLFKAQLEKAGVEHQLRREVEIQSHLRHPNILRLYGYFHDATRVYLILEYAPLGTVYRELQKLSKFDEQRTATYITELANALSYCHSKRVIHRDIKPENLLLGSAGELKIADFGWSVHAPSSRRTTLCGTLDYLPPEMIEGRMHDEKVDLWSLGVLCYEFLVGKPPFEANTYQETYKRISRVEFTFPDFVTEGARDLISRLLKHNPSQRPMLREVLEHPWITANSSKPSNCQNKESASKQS
Procedure: Inhibitory activity against Aurora A, CDK1/Cyclin B complex, CDK2/Cyclin E complex and CDK3/Cyclin E complex were measured by in vitro kinase assay using recombinant proteins. The assays were carried out by using recombinant proteins (Upstate Inc.) for Aurora A, CDK1/Cyclin B complex, CDK2/Cyclin E complex and CDK3/Cyclin E complex (respective cat. nos. 14-511, 14-450, 14-448 and 14-487), in accordance with the procedure described in the product instructions thereof. The 50% inhibitory concentrations (IC50 values) were calculated by assigning measured values in the case of not containing a test compound to an inhibition of 0%, and assigning measured values in the case of not containing a test compound and enzyme to an inhibition of 100%.

[2] = molecular target: CDK2/Cyclin E complex (Homo sapiens, UniProt P24941); assay: In vitro kinase assay, CDK2/Cyclin E complex; format: biochemical; conditions: recombinant protein (Upstate); read-out: CDK2/cyclinE IC50
Procedure: (§1) Inhibitory activity against Aurora A, CDK1/Cyclin B complex, CDK2/Cyclin E complex and CDK3/Cyclin E complex were measured by in vitro kinase assay using recombinant proteins.

[3] = molecular target: T2, CDK3/Cyclin E complex (Homo sapiens, UniProt Q00526); assay: In vitro kinase assay, CDK3/Cyclin E complex; format: biochemical; conditions: recombinant protein (Upstate); read-out: CDK3/cyclinE IC50
T2 construct: purchased Upstate Inc. 14-487
T2 sequence (Q00526 whole entry): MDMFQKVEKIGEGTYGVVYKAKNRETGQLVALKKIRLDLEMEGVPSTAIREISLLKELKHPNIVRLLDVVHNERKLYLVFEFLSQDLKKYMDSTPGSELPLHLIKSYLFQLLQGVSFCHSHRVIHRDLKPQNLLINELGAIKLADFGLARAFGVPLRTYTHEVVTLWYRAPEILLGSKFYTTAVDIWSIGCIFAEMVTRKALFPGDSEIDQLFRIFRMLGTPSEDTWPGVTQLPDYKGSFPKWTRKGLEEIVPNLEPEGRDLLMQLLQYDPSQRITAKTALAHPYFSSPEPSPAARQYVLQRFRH
T2 sequence (P24864 whole entry partner): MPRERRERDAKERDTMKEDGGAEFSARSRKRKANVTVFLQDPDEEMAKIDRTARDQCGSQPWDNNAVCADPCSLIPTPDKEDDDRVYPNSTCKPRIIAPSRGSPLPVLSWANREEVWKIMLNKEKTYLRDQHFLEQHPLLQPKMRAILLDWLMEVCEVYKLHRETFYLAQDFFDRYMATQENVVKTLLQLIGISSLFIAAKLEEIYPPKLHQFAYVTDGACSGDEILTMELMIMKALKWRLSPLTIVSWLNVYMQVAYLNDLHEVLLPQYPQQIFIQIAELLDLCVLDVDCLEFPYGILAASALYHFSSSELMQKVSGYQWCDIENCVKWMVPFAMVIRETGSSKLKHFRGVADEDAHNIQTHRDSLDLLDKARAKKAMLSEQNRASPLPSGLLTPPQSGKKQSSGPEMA
Procedure: as §1

[4] = system: colon carcinoma cell line SW620; assay: Cell proliferation inhibitory activity, SW620; format: cell-based, human; conditions: cells counted 4 days later with Cell Counting Kit-8
Procedure: (§2) Evaluations were carried out using colon carcinoma cell line SW620 (Cat. No. CCL-227), lung carcinoma cell line NCI-H460 (Cat. No. HTB-177), prostate cancer cell line DU 145 (Cat. No. HTB-81), breast cancer cell line MDA-MB-231 (Cat. No. HTB26) and leukemia cell line KG-1a (Cat. No. CCL-246.1) purchased from ATCC, pancreatic cancer cell line MIAPaCa-2 (Cat. No. CRL-1420) purchased from Dainippon Pharmaceutical, and ovarian cancer cell line IGROV1 received from the Netherland Cancer Institute. The cells were cultured under the conditions recommended by the supplier for each cell line, or with respect to IGROV1, according to the method described in Cancer Res. 59: 4559-4563, 1999. Cells suspended in media were added to solutions containing the test substances at various concentrations followed by culturing in a 5% CO2 incubator at 37° C. The numbers of cells were counted 4 days later with the Cell Counting Kit-8. IC50 values were calculated by assigning measured values in the case of not containing a test substance to an inhibition of 0%, and assigning measured values in the case of not containing a test substance or cells to an inhibition of 100%.

[5] = system: leukemia cell line KG-1a; assay: Cell proliferation inhibitory activity, KG-1a; format: cell-based; conditions: cells counted 4 days later with Cell Counting Kit-8
Procedure: as §2

[6] = system: prostate cancer cell line DU 145; assay: Cell proliferation inhibitory activity, DU 145; format: cell-based, human; conditions: cells counted 4 days later with Cell Counting Kit-8
Procedure: as §2

SMILES | IC50 [2] [nM] | IC50 [3] [nM] | IC50 ([4]; Homo sapiens, SW-620, 96 h) [nM] | IC50 ([5]; Homo sapiens, 96 h) [nM] | other results
O=C(CNc1cccc(O)c1)Nc1nc2ccc3[nH]ncc3c2s1 [compound 2] | 82 | 128 | 1200 | < 100 | IC50 [1]: 148 nM
COc1cc(NCC(=O)Nc2nc3ccc4[nH]ncc4c3s2)ccc1Cl [compound 4] | 335 | 468 | 2000 | 100 | 
O=C(CNc1cc(F)cc(F)c1)Nc1nc2ccc3[nH]ncc3c2s1 [compound 5] |  |  |  |  | IC50 [5]: < 100 nM
O=C(CNc1cccc(Cl)c1)Nc1nc2ccc3[nH]ncc3c2s1 [compound 8] | 171 |  |  |  | 
O=C(CNc1ccc2[nH]ncc2c1)Nc1nc2ccc3[nH]ncc3c2s1 [compound 13] | 417 |  |  |  | 
CS(=O)(=O)Nc1cccc(NCC(=O)Nc2nc3ccc4[nH]ncc4c3s2)c1 [compound 14] | 224 | 410 |  | 200 | 
O=C(CNc1ccc2cn[nH]c2c1)Nc1nc2ccc3[nH]ncc3c2s1 [compound 15] | 40 | 88 |  |  | 
O=C(CNc1ccccc1)Nc1nc2c(C(F)(F)F)cc3[nH]ncc3c2s1 [compound 18] |  | 380 |  |  | 
Cc1cc2[nH]ncc2c2sc(NC(=O)CNc3ccccc3)nc12 [compound 19] | 190 | 242 | 2900 |  | 
O=C(CNc1ccccc1)Nc1nc2c(F)cc3[nH]ncc3c2s1 [compound 20] |  |  |  |  | IC50 [4]: 1300 nM; IC50 [5]: 100 nM
COc1cccc(NC(C)C(=O)Nc2nc3ccc4[nH]ncc4c3s2)c1 (stereo not drawn) [compound 22] |  |  | 1700 | < 100 | IC50 [1]: 387 nM
COc1cccc(NC(CC(C)C)C(=O)Nc2nc3ccc4[nH]ncc4c3s2)c1 (stereo not drawn) [compound 26] |  |  |  |  | IC50 [5]: 200 nM
O=C(Nc1nc2ccc3[nH]ncc3c2s1)C(Nc1cccc(O)c1)c1ccccc1 (stereo not drawn) [compound 27] |  |  |  | 100 | IC50 [1]: 115 nM
CCC(=O)Nc1cc(NC(C(=O)Nc2nc3c(C(F)(F)F)cc4[nH]ncc4c3s2)c2ccccc2)ccc1Cl (stereo not drawn) [compound 31] | 372 | 353 | 2700 |  | 
COc1cccc(NC(C)(C)C(=O)Nc2nc3ccc4[nH]ncc4c3s2)c1 [compound 34] |  |  |  | 100 | IC50 [1]: 332 nM
Cc1ccc(NC(C)(C)C(=O)Nc2nc3ccc4[nH]ncc4c3s2)cc1 [compound 39] | 143 | 367 | 2000 | < 100 | 
COc1ccc(NC(C)(C)C(=O)Nc2nc3ccc4[nH]ncc4c3s2)cc1 [compound 40] | 340 |  | 2300 | 200 | 
CC(C)(Nc1cccc(F)c1)C(=O)Nc1nc2ccc3[nH]ncc3c2s1 [compound 42] | 434 |  | 2200 | < 100 | 
COc1cc(NC(C)(C)C(=O)Nc2nc3ccc4[nH]ncc4c3s2)ccc1Cl [compound 43] |  |  |  | 200 | IC50 [1]: 347 nM
CCOC(=O)c1cc(NC(C)(C)C(=O)Nc2nc3ccc4[nH]ncc4c3s2)ccc1Cl [compound 44] | 160 | 157 |  | < 100 | IC50 [1]: 107 nM; IC50 ([6]; Homo sapiens, 96 h): 4500 nM
CC(C)OC(=O)c1cc(NC(C)(C)C(=O)Nc2nc3ccc4[nH]ncc4c3s2)ccc1Cl [compound 47] | 260 | 343 |  | < 100 | IC50 [1]: 148 nM
CCOC(=O)c1cc(NC(C)(C)C(=O)Nc2nc3ccc4[nH]ncc4c3s2)ccc1F [compound 49] |  |  |  | < 100 | IC50 [1]: 265 nM

SMILES | IC50 [2] [nM] | IC50 [3] [nM] | IC50 ([4]; Homo sapiens, SW-620, 96 h) [nM] | IC50 ([5]; Homo sapiens, 96 h) [nM] | other results
CC(C)(Nc1ccc(Cl)cc1)C(=O)Nc1nc2c(C(F)(F)F)cc3[nH]ncc3c2s1 [compound 59] |  |  |  |  | IC50 [4]: 2200 nM; IC50 [6]: 4200 nM
CC(C)(Nc1cccc(C(=O)O)c1)C(=O)Nc1nc2c(C(F)(F)F)cc3[nH]ncc3c2s1 [compound 66] |  | 333 |  |  | IC50 [1]: 294 nM
CC(C)(Nc1cccc(F)c1)C(=O)Nc1nc2c(C(F)(F)F)cc3[nH]ncc3c2s1 [compound 67] |  | 371 | 3000 |  | 
CC(C)(Nc1ccc(F)c(F)c1)C(=O)Nc1nc2c(C(F)(F)F)cc3[nH]ncc3c2s1 [compound 72] | 335 | 180 | 2400 |  | IC50 ([6]; Homo sapiens, 96 h): 3500 nM
CC(C)(Nc1ccc(F)cc1)C(=O)Nc1nc2c(C(F)(F)F)cc3[nH]ncc3c2s1 [compound 74] | 302 | 163 | 2700 |  | IC50 ([6]; Homo sapiens, 96 h): 3900 nM
CC(C)(Nc1cccc(NS(C)(=O)=O)c1)C(=O)Nc1nc2c(C(F)(F)F)cc3[nH]ncc3c2s1 [compound 79] | 171 | 266 | 2400 |  | IC50 ([6]; Homo sapiens, 96 h): 3100 nM
CC(C)(Nc1ccc(Cl)c(NC(=O)C2CC2)c1)C(=O)Nc1nc2c(C(F)(F)F)cc3[nH]ncc3c2s1 [compound 80] | 154 | 165 | 2300 |  | IC50 ([6]; Homo sapiens, 96 h): 4100 nM
CC(C)(Nc1ccc2[nH]c(=O)[nH]c2c1)C(=O)Nc1nc2c(C(F)(F)F)cc3[nH]ncc3c2s1 [compound 83] | 343 |  |  |  | 
CC(C)(Nc1ccc(Cl)cc1C(=O)NCC(N)=O)C(=O)Nc1nc2c(C(F)(F)F)cc3[nH]ncc3c2s1 [compound 88] | 449 | 386 | 2900 |  | 
CC(C)(Nc1ccc(Cl)c(NC(=O)OCCO)c1)C(=O)Nc1nc2c(C(F)(F)F)cc3[nH]ncc3c2s1 [compound 89] | 225 | 105 | 2200 |  | IC50 ([6]; Homo sapiens, 96 h): 4500 nM
CON(C)C(=O)c1cc(Cl)ccc1NC(C)(C)C(=O)Nc1nc2c(C(F)(F)F)cc3[nH]ncc3c2s1 [compound 100] | 391 | 344 | 3300 | 300 | 
O=C(CNc1ccc(F)cc1)Nc1nc2ccc3[nH]ncc3c2s1 [compound 105] | 205 | 257 | 1500 | 100 | 
CC(=O)Nc1cccc(NCC(=O)Nc2nc3ccc4[nH]ncc4c3s2)c1 [compound 106] | 55 | 153 |  | < 100 | 
O=C(CNc1ccccc1)Nc1nc2ccc3[nH]nc(Cl)c3c2s1 [compound 108] |  |  |  |  | IC50 [5]: 300 nM
NC(=O)CC(Nc1cccc(O)c1)C(=O)Nc1nc2ccc3[nH]ncc3c2s1 (stereo not drawn) [compound 109] | 56 | 55 |  | < 100 | IC50 [1]: 364 nM
COc1cccc(NC(CC(N)=O)C(=O)Nc2nc3ccc4[nH]ncc4c3s2)c1 (stereo not drawn) [compound 110] | 320 | 392 |  |  | 
O=C(Nc1nc2ccc3[nH]ncc3c2s1)C1CCCN1c1ccc(Cl)cc1 (stereo not drawn) [compound 111] | 100 | 262 | 2300 | 500 | 
COc1cccc(NC2(C(=O)Nc3nc4ccc5[nH]ncc5c4s3)CC2)c1 [compound 119] |  |  |  |  | IC50 [4]: 2600 nM; IC50 [5]: 300 nM
CC(C)OC(=O)c1cc(NC2(C(=O)Nc3nc4ccc5[nH]ncc5c4s3)CC2)ccc1Cl [compound 123] | 141 | 195 | 2300 |  | 
CN(C)C(=O)c1cc(NC2(C(=O)Nc3nc4ccc5[nH]ncc5c4s3)CC2)ccc1Cl [compound 124] |  |  |  |  | IC50 [5]: 100 nM
CC(=O)Nc1cc(NC(C(=O)Nc2nc3ccc4[nH]ncc4c3s2)c2ccccc2)ccc1Cl (stereo not drawn) [compound 131] | 277 | 427 | 3000 |  | IC50 [1]: 94 nM
COC(=O)c1cccc(NCC(=O)Nc2nc3ccc4[nH]ncc4c3s2)c1 [compound 134] | 339 | 477 | 1900 | < 100 | 
